This is an account of results in US20230192700A1, “PYRAZOLOPYRAZINES ACTING ON CANCERS VIA INHIBITION OF CDK12” (Bayer Aktiengesellschaft, priority 2020, published 2023).

Read-outs that look alike come from different tables or passages of the source.

Experiment [1] relates to CAL-120 human breast adenocarcinoma cells. The experiment is described as follows: Proliferation assay CAL-120 (crystal violet). The note with it: CAL-120 cells, 4 days, median, read-out: Prolif-CAL-120— IC50 - [mol/l] (median). Format: cell-based. The procedure:
4. Proliferation assay: MDA-MB-231, CAL-120
Human tumour cells were originally obtained from the American Type Culture Collection (ATCC), or from the Deutsche Sammlung von Mikroorganismen and Zellkulturen (DSMZ, German Collection of Microorganisms and Cell Cultures). Cultivated tumour cells (CAL-120, human breast adenocarcinoma cells, DSMZ ACC-459; MDA-M B-231, human breast cancer cells, ATCC HTB-26) were plated at a density of 4,000 cells/well in a 96-well multititer plate in 200 microL of their respective growth medium supplemented 10% fetal calf serum. After 24 hours, the cells of one plate (zero-point plate) were stained with crystal violet (see below), while the medium of the other plates was supplemented with the test substances in various concentrations (0 micromol/L, as well as in the range of 0.01-10 micromol/L; the final concentration of the solvent dimethyl sulfoxide was adjusted to 0.1%) using a Tecan HP D300 Digital Dispenser. The cells were incubated for 4 days in the presence of test substances. Cell proliferation was determined by staining the cells with crystal violet: the cells were fixed by adding 20 microL/measuring point of an 11% glutaric aldehyde solution for 15 minutes at room temperature. After three washing cycles of the fixed cells with water, the plates were dried at room temperature. The cells were stained by adding 100 microL/measuring point of a 0.1% crystal violet solution (pH 3.0). After three washing cycles of the stained cells with water, the plates were dried at room temperature. The dye was dissolved by adding 100 microL/measuring point of a 10% acetic acid solution. The extinction was determined by photometry at a wavelength of 595 nm. The change of cell number, in percent, was calculated by normalization of the measured values to the extinction values of the zero-point plate(=0%) and the extinction of the untreated (0 μM) cells(=100%). The IC50 values (inhibitory concentration at 50% of maximal effect) were determined by means of a 4 parameter fit.

The next experiment has as its target T1, CDK9/CyclinT1 (Homo sapiens, UniProt P50750).
T1 construct: Recombinant full-length His-tagged human CDK9 and CycT1; His-tag; purchased Life Technologies PV4131; host or cells: insect cells
The experiment is described as follows: CDK9/CycT1 high ATP kinase assay (TR-FRET). Format: biochemical. The note with it: 2 mM ATP (high ATP); median; read-out: CDK9/CyclinT1, 2 mM ATP (high ATP) IC50 - [mol/l] (median). The method, then:
2.5 CDK9/CycT1 High ATP Kinase Assay
CDK9/CycT1 -inhibitory activity of compounds of the present invention at a high ATP concentration after preincubation of enzyme and test compounds was quantified employing the CDK9/CycT1 TR-FRET assay as described in the following paragraphs.
Recombinant full-length His-tagged human CDK9 and CycT1, expressed in insect cells and purified by Ni-NTA affinity chromatography, were purchased from Life Technologies (Cat. No PV4131). As substrate for the kinase reaction biotinylated peptide biotin-Ttds-YISPLKSPYKISEG (C-terminus in amide form) was used which can be purchased e.g. form the company JERINI peptide technologies (Berlin, Germany).
For the assay 50 nanoL of a 100 fold concentrated solution of the test compound in DMSO was pipetted into either a black low volume 384 well microtiter plate or a black 1536 well microtiter plate (both Greiner Bio-One, Frickenhausen, Germany), 2 microL of a solution of CDK9/CycT1 in aqueous assay buffer [50 millimol/L Tris/HCl pH 8.0, 10 millimol/L MgCl2, 1.0 millimol/L dithiothreitol, 0.1 millimol/L sodium ortho-vanadate, 0.01% (v/v) Nonidet-P40 (Sigma)] were added and the mixture was incubated for 15 min at 22° C. to allow pre-binding of the test compounds to the enzyme before the start of the kinase reaction. Then the kinase reaction was started by the addition of 3 microL of a solution of adenosine-tri-phosphate (ATP, 3.3 millimol/L=>final conc. in the 5 microL assay volume is 2 millimol/L) and substrate (1.25 micromol/L =>final conc. in the 5 microL assay volume is 0.75 micromol/L) in assay buffer and the resulting mixture was incubated for a reaction time of 25 min at 22° C. The concentration of CDK9/CycT1 was adjusted depending of the activity of the enzyme lot and was chosen appropriate to have the assay in the linear range, typical concentrations were in the range of 0.5 microg/mL. The reaction was stopped by the addition of 3 microL of a solution of TR-FRET detection reagents (0.33 micromol/L streptavidine-XL665 [Cisbio Bioassays, Codolet, France] and 1.67 nanomol/L anti-RB(pSer807/pSer811)-antibody from BD Pharmingen [#558389] and 2 nanomol/L LANCE EU-W1024 labeled anti-mouse IgG antibody [Perkin-Elmer, product no. AD0077]) in an aqueous EDTA-solution (167 millimol/L EDTA, 0.2% (w/v) bovine serum albumin in 100 millimol/L HEPES pH 7.5).
The resulting mixture was incubated 1 h at 22° C. to allow the formation of complex between the phosphorylated biotinylated peptide and the detection reagents. Subsequently the amount of phosphorylated substrate was evaluated by measurement of the resonance energy transfer from the Eu-chelate to the streptavidine-XL. Therefore, the fluorescence emissions at 620 nm and 665 nm after excitation at 350 nm was measured in a TR-FRET reader, e.g. a Pherastar (BMG Labtechnologies, Offenburg, Germany) or a Viewlux (Perkin-Elmer). The ratio of the emissions at 665 nm and at […] was taken as the measure for the amount of phosphorylated substrate. The data were normalised (enzyme reaction without inhibitor=0% inhibition, all other assay components but no enzyme=100% inhibition).
(Time-resolved FRET reads energy transfer from a long-lived donor to a nearby acceptor.)

T1 sequence (P50750 whole entry): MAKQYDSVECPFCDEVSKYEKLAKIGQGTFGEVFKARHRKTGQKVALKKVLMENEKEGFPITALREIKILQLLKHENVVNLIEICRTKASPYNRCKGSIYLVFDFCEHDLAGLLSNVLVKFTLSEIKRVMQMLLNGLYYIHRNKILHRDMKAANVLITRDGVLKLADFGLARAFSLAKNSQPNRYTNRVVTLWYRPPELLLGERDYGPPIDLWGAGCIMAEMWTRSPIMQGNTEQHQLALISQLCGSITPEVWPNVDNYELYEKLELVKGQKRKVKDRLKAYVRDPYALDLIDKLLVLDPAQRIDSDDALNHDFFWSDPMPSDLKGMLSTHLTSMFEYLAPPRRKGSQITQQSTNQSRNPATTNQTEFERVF
T1 sequence (O60563 whole entry partner): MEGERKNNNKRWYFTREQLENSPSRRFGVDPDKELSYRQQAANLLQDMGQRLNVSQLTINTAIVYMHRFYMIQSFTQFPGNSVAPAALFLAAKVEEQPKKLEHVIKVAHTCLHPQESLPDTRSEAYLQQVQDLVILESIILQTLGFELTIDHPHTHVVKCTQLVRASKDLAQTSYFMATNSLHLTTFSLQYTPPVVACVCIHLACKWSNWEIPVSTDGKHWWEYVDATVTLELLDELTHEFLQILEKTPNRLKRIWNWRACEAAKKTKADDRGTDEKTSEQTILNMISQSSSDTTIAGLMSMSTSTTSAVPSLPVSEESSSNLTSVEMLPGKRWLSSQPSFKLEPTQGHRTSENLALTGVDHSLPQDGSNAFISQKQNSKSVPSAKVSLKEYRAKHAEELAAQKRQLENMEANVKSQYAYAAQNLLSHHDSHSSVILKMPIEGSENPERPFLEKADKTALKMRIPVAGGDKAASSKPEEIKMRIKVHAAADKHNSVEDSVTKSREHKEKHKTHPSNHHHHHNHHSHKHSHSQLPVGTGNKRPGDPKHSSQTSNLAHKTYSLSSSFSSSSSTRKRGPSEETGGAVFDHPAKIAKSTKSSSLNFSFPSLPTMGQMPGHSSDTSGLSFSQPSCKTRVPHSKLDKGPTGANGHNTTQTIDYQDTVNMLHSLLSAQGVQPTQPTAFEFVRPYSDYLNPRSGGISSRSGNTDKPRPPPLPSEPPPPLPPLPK

Turning to `c1ccc2[nH]c(CNc3nn(C4CCOC4)c4nc(C5CC5)cnc34)nc2c1` (racemic) [Example 10, (±)-N-[(1H-benzimidazol-2-yl)methyl]-6-cyclopropyl-1-[oxolan-3-yl]-1H-pyrazolo[3,4-b]pyrazin-3-amine], the IC50 in experiment [1] (Homo sapiens, CAL-120, 96 h) is 0.0657 µM; on CDK9/CyclinT1, > 20 µM. For `CC1COCCC1n1nc(NCc2nc3ccccc3[nH]2)c2ncc(C3CC3)nc21` (racemic) [Example 42, (±)-cis/trans-N-[(1H-benzimidazol-2-yl)methyl]-6-cyclopropyl-1-(3-methyloxan-4-yl)-1H-pyrazolo[3,4-b]pyrazin-3-amine] the same measures were 0.0845 µM and > 20 µM. Take `COCCC(C)n1nc(NCc2nc3ccccc3[nH]2)c2ncc(C3CC3)nc21` (racemic) [Example 57, (±)-N-[(1H-benzimidazol-2-yl)methyl]-6-cyclopropyl-1-(4-methoxybutan-2-yl)-1H-pyrazolo[3,4-b]pyrazin-3-amine]: the IC50 in experiment [1] (Homo sapiens, CAL-120, 96 h) was 0.105 µM; on CDK9/CyclinT1, > 20 µM. As to `CC(CCN(C)C)n1nc(NCc2nc3ccccc3[nH]2)c2ncc(C3CC3)nc21` (racemic) [Example 62, (±)-N-[(1H-benzimidazol-2-yl)methyl]-6-cyclopropyl-1-[4-(dimethylamino)butan-2-yl]-1H-pyrazolo[3,4-b]pyrazin-3-amine], the IC50 in experiment [1] (Homo sapiens, CAL-120, 96 h) is 0.301 µM; on CDK9/CyclinT1, > 20 µM. For `CC(CCN(C)C)n1nc(NCc2nc3ccccc3[nH]2)c2ncc(C3CC3)nc21` (single isomer, unassigned) [Example 63, (+) or (−)-N-[(1H-benzimidazol-2-yl)methyl]-6-cyclopropyl-1-[4-(dimethylamino)butan-2-yl]-1H-pyrazolo[3,4-b]pyrazin-3-amine], the IC50 in experiment [1] is 0.878 µM; at CDK9/CyclinT1, > 20 µM.

With `CC(CCN(C)C)n1nc(NCc2nc3ccccc3[nH]2)c2ncc(C3CC3)nc21` (single isomer, unassigned) [Example 64, (−) or(+)-N-[(1H-benzimidazol-2-yl)methyl]-6-cyclopropyl-1-[4-(dimethylamino)butan-2-yl]-1H-pyrazolo[3,4-b]pyrazin-3-amine], the IC50 in experiment [1] is 0.295 µM; on CDK9/CyclinT1 it was > 20 µM. As for `CN1CCC(n2nc(NCc3nc4ccccc4[nH]3)c3ncc(C4CC4)nc32)C1` (single isomer, unassigned) [Example 79, (−) or (+)-N-[(1H-benzimidazol-2-yl)methyl]-6-cyclopropyl-1-(1-methylpyrrolidin-3-yl)-1H-pyrazolo[3,4-b]pyrazin-3-amine], the IC50 in experiment [1] was 0.0714 µM; on CDK9/CyclinT1, > 20 µM. In the case of `Cc1ccc2[nH]c(CNc3nn(C4CCN(C)CC4)c4nc(C5CC5)cnc34)nc2c1` [Example 6, 6-cyclopropyl-N-[(5-methyl-1H-benzimidazol-2-yl)methyl]-1-(1-methylpiperidin-4-yl)-1H-pyrazolo[3,4-b]pyrazin-3-amine], the IC50 at CDK9/CyclinT1 was ≥ 12.7 µM. Take `CN1CCC(n2nc(NCc3nc4c(C(F)(F)F)cccc4[nH]3)c3ncc(C4CC4)nc32)CC1` [Example 7, 6-cyclopropyl-1-(1-methylpiperidin-4-yl)-N-{[4-(trifluoromethyl)-1H-benzimidazol-2-yl]methyl}-1H-pyrazolo[3,4-b]pyrazin-3-amine]: the IC50 in experiment [1] (Homo sapiens, CAL-120, 96 h) is 0.0105 µM; at CDK9/CyclinT1 it was > 20 µM.

`Cc1cccc2[nH]c(CNc3nn(C4CCN(C)CC4)c4nc(C5CC5)cnc34)nc12` [Example 8, 6-cyclopropyl-N-[(4-methyl-1H-benzimidazol-2-yl)methyl]-1-(1-methylpiperidin-4-yl)-1H-pyrazolo[3,4-b]pyrazin-3-amine]: the IC50 in experiment [1] (Homo sapiens, CAL-120, 96 h) was 0.0142 µM; on CDK9/CyclinT1, > 20 µM.

With `CN1CCC(n2nc(NCc3nc4c(F)c(F)ccc4[nH]3)c3ncc(C4CC4)nc32)CC1` [Example 9, 6-cyclopropyl-N-[(4,5-difluoro-1H-benzimidazol-2-yl)methyl]-1-(1-methylpiperidin-4-yl)-1H-pyrazolo[3,4-b]pyrazin-3-amine], the IC50 is 0.00678 µM in experiment [1] (Homo sapiens, CAL-120, 96 h) and > 20 µM on CDK9/CyclinT1. In the case of `CC(C)(C)OC(=O)N1CCC(n2nc(NCc3nc4ccccc4[nH]3)c3ncc(C4CC4)nc32)CC1` [Example 11, tert-butyl 4-(3-{[(1H-benzimidazol-2-yl)methyl]amino}-6-cyclopropyl-1H-pyrazolo[3,4-b]pyrazin-1-yl)piperidine-1-carboxylate], the IC50 in experiment [1] (Homo sapiens, CAL-120, 96 h) was 0.0814 µM; at CDK9/CyclinT1, > 20 µM. For `c1ccc2[nH]c(CNc3nn(C4CCNCC4)c4nc(C5CC5)cnc34)nc2c1` [Example 12, N-[(1H-benzimidazol-2-yl)methyl]-6-cyclopropyl-1-(piperidin-4-yl)-1H-pyrazolo[3,4-b]pyrazin-3-amine] the same measures were 0.00649 µM and > 20 µM. Consider `O[C@H]1CC[C@@H](n2nc(NCc3nc4ccccc4[nH]3)c3ncc(C4CC4)nc32)CC1` [Example 51, cis-4-(3-{[(1H-benzimidazol-2-yl)methyl]amino}-6-cyclopropyl-1H-pyrazolo[3,4-b]pyrazin-1-yl)cyclohexan-1-ol], for which, at CDK9/CyclinT1, the IC50 is > 20 µM. Still for that read-out and setting: to `CC1(C)CC(n2nc(NCc3nc4ccccc4[nH]3)c3ncc(C4CC4)nc32)CC(C)(C)O1` [Example 52, N-[(1H-benzimidazol-2-yl)methyl]-6-cyclopropyl-1-(2,2,6,6-tetramethyloxan-4-yl)-1H-pyrazolo[3,4-b]pyrazin-3-amine] belongs > 20 µM. The same measure, in the same setting: to `c1ccc2[nH]c(CNc3nn(C4CC5(COC5)C4)c4nc(C5CC5)cnc34)nc2c1` [Example 54, N-[(1H-benzimidazol-2-yl)methyl]-6-cyclopropyl-1-(2-oxaspiro[3.3]heptan-6-yl)-1H-pyrazolo[3,4-b]pyrazin-3-amine] belongs > 20 µM; to `c1ccc2[nH]c(CNc3nn(C4COC4)c4nc(C5CC5)cnc34)nc2c1` [Example 55, N-[(1H-benzimidazol-2-yl)methyl]-6-cyclopropyl-1-(oxetan-3-yl)-1H-pyrazolo[3,4-b]pyrazin-3-amine], > 20 µM.

Turning to `O[C@H]1CC[C@H](n2nc(NCc3nc4cc(F)ccc4[nH]3)c3ncc(C4CC4)nc32)CC1` [Example 56, trans-4-(6-cyclopropyl-3-{[(5-fluoro-1H-benzimidazol-2-yl)methyl]amino}-1H-pyrazolo[3,4-b]pyrazin-1-yl)cyclohexan-1-ol], on CDK9/CyclinT1, the IC50 is > 20 µM.
